Target: T1, synthetic Aβ 1-40 (Homo sapiens, UniProt P05067)
T1 construct: synthetic Aβ 1-40
Assay: Competition binding assay ([3H]PIB as radioligand)
Settings: 2.7 nM [3H]PIB radioligand, phosphate buffer pH 7.5, 30 min room temperature
Experimental: Competition binding was performed in 384-well FB filter plates using synthetic Aβ 1-40 in 2.7 nM of [^3H]PIB (or another ^3H-labeled radioligand when so mentioned) in phosphate buffer at pH 7.5, by adding various concentrations of non-radioactive compounds originally dissolved in DMSO. The binding mixture was incubated for 30 min at room temperature, followed by vacuum filtration, and subsequentially by washing twice with 1% Triton-X100. Scintillation fluid was thereafter added to the collected Aβ 1-40 on the filter plate, and the activity of the bound remaining radioligand ([^3H]PIB or another ^3H-labeled radioligand) was measured using 1450 Microbeta from PerkinElmer. Specific binding was determined according to the competion binding assay described herein. The determined IC50's in the competion binding assays (using [^3H]PIB as radioligand) of compounds of the present invention are shown in Table 1.

T1 sequence (P05067 672-711 limits assumed): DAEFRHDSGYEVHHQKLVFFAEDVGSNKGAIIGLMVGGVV

Row | Structure (SMILES) | IC50 [µM]
1 | COc1ccc2oc(-c3ccc(N)nn3)cc2c1 [6-(5-Methoxy-benzofuran-2-yl)-pyridazin-3-ylamine] | 0.912
2 | COc1ccc2nc(-c3cc4ccccc4o3)cn2c1 [2-(1-benzofuran-2-yl)-6-methoxyimidazo[1,2-a]pyridine] | 0.361
3 | CNc1ncc(-c2cc3cc(O)ccc3o2)cc1F [2-(5-fluoro-6-methylamino-pyridin-3-yl)-benzofuran-5-ol] | 0.032
4 | CNc1ccc(-c2cc3cc(O)ccc3o2)c(F)n1 [2-(2-Fluoro-6-methylamino-pyridin-3-yl)-benzofuran-5-ol] | 0.018
5 | CNc1ccc(-c2cc3cc(O)ccc3o2)nc1F [2-(6-Fluoro-5-methylamino-pyridin-2-yl)-benzofuran-5-ol] | 0.044
6 | COc1ccc2oc(-c3ccc(C(N)=O)cn3)cc2c1 [6-(5-Methoxy-benzofuran-2-yl)-nicotinamide] | 0.033
7 | Nc1ccc(-c2cc3cc(O)ccc3o2)nn1 [2-(6-Amino-pyridazin-3-yl)-benzofuran-5-ol] | 2.71
8 | CNc1ccc(-c2cc3cc(OC)ccc3o2)cn1 [[5-(5-Methoxy-benzofuran-2-yl)-pyridin-2-yl]-methylamine] | 0.066

Other lines, results leading:

Row | IC50 [µM] | Structure (SMILES)
9 | 0.043 | NC(=O)c1ccc(-c2cc3cc(O)ccc3o2)nc1 [6-(5-Hydroxy-benzofuran-2-yl)-nicotinamide]
10 | 0.046 | CNc1ccc(-c2cc3cc(O)ccc3o2)cn1 [2-(6-Methylamino-pyridin-3-yl)-benzofuran-5-ol]
11 | 0.061 | COc1ccc2oc(-c3ccc(C(N)=O)nc3)cc2c1 [5-(5-Methoxy-benzofuran-2-yl)-pyridine-2-carboxylic acid amide]
12 | 0.019 | NC(=O)c1ccc(-c2cc3ccccc3o2)cn1 [5-(1-Benzofuran-2-yl)pyridine-2-carboxamide]
13 | 0.03 | NC(=O)c1ccc(-c2cc3ccccc3s2)cn1 [5-(1-benzothien-2-yl)pyridine-2-carboxamide]
14 | 0.6 | NC(=O)c1ccc(-c2cc3cc(O)ccc3o2)cn1 [5-(5-Hydroxy-benzofuran-2-yl)-pyridine-2-carboxylic acid amide]

From US7772256B2, “2-heteroaryl substituted benzothiophenes and benzofuranes 709” (Astrazeneca AB, priority 2007, dated 2010)
